1 compound from ChEMBL document CHEMBL4028852, “Design of a Chemical Probe for the Bromodomain and Plant Homeodomain Finger-Containing (BRPF) Family of Proteins” (J Med Chem, 2017) can be followed below.

SMILES strings stand for the structures.

In experiment [1] the target is T1, Transcription intermediary factor 1-alpha (Homo sapiens, UniProt O15164).
T1 sequence (O15164 whole entry): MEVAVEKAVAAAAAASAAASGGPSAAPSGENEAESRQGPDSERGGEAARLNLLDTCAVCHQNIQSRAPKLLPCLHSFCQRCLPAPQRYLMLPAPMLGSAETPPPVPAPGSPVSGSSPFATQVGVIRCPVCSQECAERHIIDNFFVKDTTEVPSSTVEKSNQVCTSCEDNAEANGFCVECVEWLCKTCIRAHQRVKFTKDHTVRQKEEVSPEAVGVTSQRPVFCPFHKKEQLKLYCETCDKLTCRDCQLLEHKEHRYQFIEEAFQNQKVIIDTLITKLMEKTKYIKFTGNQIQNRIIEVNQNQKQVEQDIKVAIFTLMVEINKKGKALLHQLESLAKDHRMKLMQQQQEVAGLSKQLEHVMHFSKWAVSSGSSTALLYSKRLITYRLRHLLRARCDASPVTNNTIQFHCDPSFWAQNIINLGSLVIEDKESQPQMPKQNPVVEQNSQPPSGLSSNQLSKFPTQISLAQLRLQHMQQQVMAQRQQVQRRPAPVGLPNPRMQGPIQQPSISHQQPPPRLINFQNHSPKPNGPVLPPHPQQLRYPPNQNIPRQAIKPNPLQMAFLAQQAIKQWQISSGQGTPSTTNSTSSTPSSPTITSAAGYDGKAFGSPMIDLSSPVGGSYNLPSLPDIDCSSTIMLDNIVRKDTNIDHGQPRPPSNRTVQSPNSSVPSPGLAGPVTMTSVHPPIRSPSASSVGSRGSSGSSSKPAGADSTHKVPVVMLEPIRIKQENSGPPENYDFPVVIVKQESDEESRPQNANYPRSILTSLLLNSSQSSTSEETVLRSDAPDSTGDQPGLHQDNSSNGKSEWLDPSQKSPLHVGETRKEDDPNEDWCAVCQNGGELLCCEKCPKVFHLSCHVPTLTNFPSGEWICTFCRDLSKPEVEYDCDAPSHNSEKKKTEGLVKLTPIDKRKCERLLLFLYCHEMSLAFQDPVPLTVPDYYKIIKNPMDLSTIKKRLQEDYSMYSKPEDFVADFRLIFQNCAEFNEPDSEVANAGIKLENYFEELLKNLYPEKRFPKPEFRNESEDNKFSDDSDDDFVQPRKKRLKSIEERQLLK
The experiment is described as follows: Inhibition of human TRIM24 bromodomain (790 to 977 residues) expressed in Escherichia coli BL21 after 1 hr by BROMOscan assay.

Experiment [2] concerns the target T2, Bromodomain-containing protein 9 (Homo sapiens, UniProt Q9H8M2).
T2 sequence (Q9H8M2 whole entry): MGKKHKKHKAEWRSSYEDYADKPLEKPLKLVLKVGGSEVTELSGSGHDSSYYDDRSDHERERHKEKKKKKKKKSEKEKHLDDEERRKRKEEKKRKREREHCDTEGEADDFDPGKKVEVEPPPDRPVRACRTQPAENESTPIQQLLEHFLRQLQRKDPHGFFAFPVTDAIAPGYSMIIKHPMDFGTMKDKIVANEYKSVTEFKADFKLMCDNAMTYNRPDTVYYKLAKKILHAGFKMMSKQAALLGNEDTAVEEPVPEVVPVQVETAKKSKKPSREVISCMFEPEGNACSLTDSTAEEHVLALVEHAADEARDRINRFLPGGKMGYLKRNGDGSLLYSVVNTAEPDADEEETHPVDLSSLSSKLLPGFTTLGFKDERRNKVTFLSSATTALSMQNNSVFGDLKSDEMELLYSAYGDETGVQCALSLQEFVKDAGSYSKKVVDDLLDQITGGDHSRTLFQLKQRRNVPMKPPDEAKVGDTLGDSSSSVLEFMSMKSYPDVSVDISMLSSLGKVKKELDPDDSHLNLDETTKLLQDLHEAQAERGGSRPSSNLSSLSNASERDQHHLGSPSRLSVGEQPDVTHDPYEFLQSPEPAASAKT
The experiment is described as follows: Inhibition of His-tagged BRD9 (unknown origin) after 30 mins by alphaScreen assay. (In general: Bead proximity is the source of the signal in Alpha formats.)

A short description of experiment [3]: Inhibition of cell proliferation of human HRA19 cells after 72 hrs by MTS assay. Type of experiment: functional. The conditions noted are these: HRA19, 72 h.

A word on the IC50: it is the concentration at which inhibition is half-maximal. Usually GI50 stands for the concentration giving 50% growth inhibition. A high value points to less potent growth inhibition. Turning to `COc1cc(C#N)ccc1S(=O)(=O)Nc1ccc2c(c1)cc(C)c(=O)n2C`, the IC50 in experiment [1] amounted to 1.6 µM; in experiment [2], 4.4 µM. Besides, growth in experiment [3] was halved (GI50) at 15.6 µM.
